Measured values published in patent publication USRE47885E1, “Use of cannabidiol prodrugs in pharmaceutical compositions” (Zynerba Pharmaceuticals, Inc., priority 2009, dated 2020).

Assays:
[1] = assay type: in vitro ADME; conditions: ALL00179 added to human plasma; for Percent Prodrug and CBD at time (min) 0*: 0 min (approximately 1 minute of mixing and withdrawal); for Percent Prodrug and CBD at time (min) 5: 5 min; for Percent Prodrug and CBD at time (min) 10: 10 min; for Percent Prodrug and CBD at time (min) 20: 20 min; for Percent Prodrug and CBD at time (min) 30: 30 min; for Percent Prodrug and CBD at time (min) 60: 60 min; for Percent Prodrug and CBD at time (min) 120: 120 min
Description: Stability of the prodrug in human plasma was performed to monitor the conversion of ALL00179 to the monosubstituted form, ALL00180, and CBD. The molecular structure of ALL00180 and CBD are shown below: […]

[2] = Permeation from an optimized gel system of cannabidiol through intact dermatomed human skin; assay type: in vitro ADME; conditions: optimized gel system of cannabidiol (2.5% w/w), dosed every 12 hr
Description: As a comparison, permeation from an optimized gel system of cannabidiol (2.5% w/w) through intact dermatomed human skin, dosed every 12 hr, gave a flux of 5.2 nmol/cm^2/h. The total CBD flux from ALLL00179 after MN treatment of full thickness Yucatan pig skin was 63.2±11.4 nmol/cm^2/h, resulting in a 12.2 fold enhancement of flux.

[3] = Previous studies: permeation through intact skin (non-MN treated, 100% ddH2O donor solution); assay type: in vitro ADME
Description: Likewise, short lag times were observed throughout the study for the ALL00179-treated skin. […] In this study, the total amount of CBD delivered from a 25 mg ALL00179-containing donor solution was 0.2±0.1 mg total CBD equivalents in the skin and 1.0±0.2 mg total CBD equivalents in the receiver solution after 48 hr. This accounts for approximately 4.8% of the total ALL00179 in the donor solution.

[4] = In vitro diffusion study through microneedle-treated full thickness Yucatan pig skin (flow-through diffusion cell); assay type: in vitro ADME; conditions: ALL00179 100% ddH2O donor solution, end of 48 h diffusion study
Description: The purpose of the diffusion study was to determine whether microneedle (MN) treated skin would allow the rapid permeation of a water-soluble prodrug of CBD (ALL00179) compared to CBD.
Briefly, full thickness Yucatan pig (YP) skin was used to perform the microneedle studies. The average thickness of the YP skin was approximately 1.0±0.1 mm. A PermeGear flow-through (In-Line, Hellertown, Pa.) diffusion cell system was used for the skin permeation studies. One hundred microneedle insertions were made into the skin before mounting in the flow-through diffusion cell by treating the skin 20 times with an array containing 5 microneedles. Each cell was charged with 250 μl of either 318 mM CBD (n=4) or ALL00179 (n=5) and occluded with rubber stoppers. Ten percent ethanol in water was used as a receiver solution. Samples were collected at six-hour intervals for a total of 48 hours. (See FIG. 1 for the permeation profile.)

[5] = Chemical stability of ALL00179 in 100% ddH2O donor solution; assay type: physicochemical; conditions: for purity level after 72 hr: ALL00179 after 72 hr in ddH7O at RT; for initial purity (composition of ALL00179 sample): ALL00179 for 100% ddH2O donor solution
Description: ALL00179 was placed in 100% ddH2O donor solution to check chemical stability. The initial purity of ALL00179 was 94.7% ALL00179, 5.3% ALL00180, and 0% CBD. After 72 hr in ddH7O at RT, the purity level was determined to be 86.8% ALL00179, 13.2% ALL00180 and 0% CBD.

[6] = cited from earlier work
[7] = used in conjunction with microneedles

Row | Structure (SMILES) | Percent Prodrug and CBD at time (min) 0* [1] [%] | Percent Prodrug and CBD at time (min) 5 [1] [%] | Percent Prodrug and CBD at time (min) 10 [1] [%] | Percent Prodrug and CBD at time (min) 20 [1] [%] | Percent Prodrug and CBD at time (min) 30 [1] [%] | Percent Prodrug and CBD at time (min) 60 [1] [%] | Percent Prodrug and CBD at time (min) 120 [1] [%] | flux [2] [nmol/cm^2/h] | drug detected in the skin [3] | flux through intact skin [3] | composition of the donor solutions at the end of the study [4] [%] | purity level after 72 hr [5] [%] | initial purity (composition of ALL00179 sample) [5] [%] | naltrexone levels ([6]; 16% naltrexone hydrochloride gel, 6 healthy human volunteers, microneedle pretreatment) [ng/mL] | duration of steady state naltrexone concentrations [6, 7] [h] | time to steady state naltrexone concentrations [6, 7]
1 | C=C(C)[C@@H]1CCC(C)=C[C@H]1c1c(O)cc(CCCCC)cc1O [Cannabidiol] | 4.7 | 30.2 | 55.1 | 77.1 | 89.4 | 97.6 | 100 | 5.2 | none | no flux | 0 | 0 | 0 |  |  | 
2 | C=C(C)[C@@H]1CCC(C)=C[C@H]1c1c(O)cc(CCCCC)cc1OC(=O)C[N+](C)(C)C [ALL00180] | 86.1 | 66.8 | 44.9 | 22.9 | 10.6 | 2.4 | 0.0 |  |  |  | 15.7±2.6 | 13.2 | 5.3 |  |  | 
3 | C=C(C)[C@@H]1CCC(C)=C[C@H]1c1c(OC(=O)C[N+](C)(C)C)cc(CCCCC)cc1OC(=O)C[N+](C)(C)C.[Cl-].[Cl-] [ALL00179] | 9.2 | 3.0 | 0.0 | 0.0 | 0.0 | 0.0 | 0.0 |  |  | no flux | 84.3±2.6 | 86.8 | 94.7 |  |  | 
4 | O=C1CC[C@@]2(O)[C@H]3Cc4ccc(O)c5c4[C@@]2(CCN3CC2CC2)[C@H]1O5 [naltrexone] |  |  |  |  |  |  |  |  |  |  |  |  |  | 2.5 ± 1.1 | 48 | within two hours
